# Reference: article PMC4825926, “FleA Expression in Aspergillus fumigatus Is Recognized by Fucosylated Structures on Mucins and Macrophages to Prevent Lung Infection” (PLoS Pathogens, 2016)
# Read-outs that look alike come from different tables or passages of the source.
# Assays:
# [1] = target: T1, FleA (AFL, Aspergillus fumigatus lectin) (Aspergillus fumigatus, UniProt Q4WW81); test: competition plate assay: biotinylated FleA binding to immobilised human airway mucin
# T1 construct: about 34 kDa; no canonical signal peptide
# [2] = target: T2, PA-IIL (PAIIL) (Pseudomonas aeruginosa, UniProt Q9HYN5); test: competition assay: PA-IIL binding to human airway mucin
# T2 construct: gene lecB
# [3] = target: T1, FleA (AFL, Aspergillus fumigatus lectin); test: competition plate assay: biotinylated FleA binding to immobilised human airway mucin; details: 10 mM CaCl2, TBS-Tween; 100 mM L-galactose
# T1 sequence (Q4WW81 whole entry): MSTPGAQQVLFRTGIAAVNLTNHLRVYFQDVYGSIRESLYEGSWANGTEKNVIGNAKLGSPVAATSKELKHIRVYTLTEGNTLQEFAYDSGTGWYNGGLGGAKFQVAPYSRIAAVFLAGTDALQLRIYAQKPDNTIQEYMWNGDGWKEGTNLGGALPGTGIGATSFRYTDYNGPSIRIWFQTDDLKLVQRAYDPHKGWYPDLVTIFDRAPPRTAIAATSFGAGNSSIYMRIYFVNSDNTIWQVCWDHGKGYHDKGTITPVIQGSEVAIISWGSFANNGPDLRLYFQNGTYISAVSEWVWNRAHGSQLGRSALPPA
# T2 sequence (Q9HYN5 entry or part of it): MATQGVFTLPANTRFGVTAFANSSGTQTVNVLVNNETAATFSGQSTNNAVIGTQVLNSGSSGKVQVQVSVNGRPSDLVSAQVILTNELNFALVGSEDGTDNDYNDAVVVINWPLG
Compound,IC50 [1] [µM],other results
CCC/C=C/CO[C@H]1O[C@H](CO)[C@H](O)[C@H](O)[C@H]1O [(2E)-hexenyl α-D-galactopyranoside],15300,–
CCC/C=C/CO[C@@H]1O[C@@H](C)[C@@H](O)[C@@H](O)[C@@H]1O [(2E)-hexenyl α-L-fucopyranoside],0.012,IC50 [2]: 1.6 µM
CCCCC/C=C/CO[C@@H]1O[C@@H](C)[C@@H](O)[C@@H](O)[C@@H]1O [(2E)-octenyl α-L-fucopyranoside],2100,–
C[C@@H]1OC(O)[C@@H](O)[C@H](O)[C@@H]1O (stereo partly drawn) [L-fucose],–,"IC50 ([1]; 10 mM CaCl2, TBS-Tween, inhibition of FleA-mucin binding): 801 µM"
OC[C@@H]1OC(O)[C@@H](O)[C@H](O)[C@@H]1O (stereo partly drawn) [L-galactose],–,inhibition at 100 mM [3]: No inhibition was observed with galactose (Fig 1A)
C=CCO[C@@H]1O[C@@H](C)[C@@H](O)[C@@H](O)[C@@H]1O [allyl α-L-fucopyranoside],264,–
CCCCCCO[C@@H]1O[C@@H](C)[C@@H](O)[C@@H](O)[C@@H]1O [hexyl α-L-fucopyranoside],361,–
CO[C@@H]1O[C@@H](C)[C@@H](O)[C@@H](O)[C@@H]1O [methyl α-L-fucopyranoside],450,–
